Tests used:
[1] = tested on: CD44-Ig; assay: Immunoprecipitation of versican from ACHN conditioned medium with CD44-Ig; type: binding, human; details: 30 mM sodium chlorate; ACHN cells; FIG. 1
Protocol: (§1) ACHN cells were pre-incubated at 37° C. for 6 hours in RPMI 1640 containing 10% by weight of bovine fetal serum in the presence or absence of 30 mM sodium chlorate. A confluent monolayer of the resulting ACHN cells was labeled by incubation for 18 hours in the presence or absence of 30 mM sodium chlorate, in a medium of either of:
(§2) Immunoprecipitation was performed as follows, according to the method described in the publication of Kawashima, H. et al. [Int. Immunol., 11, 393-405 (1999); all teachings of which are hereby incorporated by reference] except that beads were washed using buffer A (0.05% Tween 20, 20 mM HEPES-NaOH, 0.15M NaCl, 1 mM CaCl2, 1 mM MgCl2, pH6.8).
(§3) Each of the antibody and the Ig chimera shown in FIG. 1 (equivalent to 10 μg) was coupled to Protein A-Sepharose column (equivalent to 10 μL) by a conventional method, to obtain antibody-coupled Protein A-Sepharose or Ig chimera-coupled Protein A-Sepharose. […]
(§4) Thereafter, the beads were washed with the buffer A, to obtain precipitates. The resulting precipitates were subjected to SDS-agarose-PAGE, and thereafter, signal ascribed to ^35S label on a gel was detected by autoradiography.

[2] = tested on: ACHN cells; assay: Sulfation of versican in [35S]sulfate-labeled ACHN cells; type: cell-based; details: 30 mM sodium chlorate, relative to the case without treatment
Protocol: as §1
(i) Eagle minimum basal medium SMEM [sulfate-free; manufactured by BioWhittaker] containing 2% by weight of dialyzed bovine fetal serum in the presence of 0.2 mCi/ml [^35S]Na2SO4 [trade name: Sulfer-35; manufactured by ICN Radiochemicals], or
(ii) methionine-free RPMI 1640 medium [manufactured by Invitrogen] containing 2% by weight of dialyzed bovine fetal serum in the presence of 0.2 mCi/ml [^35S]-methionine [manufactured by ICN Radiochemicals].
Immunoprecipitation was performed as follows, according to the method described in the publication of Kawashima, H. et al. [Int. Immunol., 11, 393-405 (1999); all teachings of which are hereby incorporated by reference] except that beads were washed using buffer A (0.05% Tween 20, 20 mM HEPES-NaOH, 0.15M NaCl, 1 mM CaCl2, 1 mM MgCl2, pH6.8). […]
as §4

[3] = biological target: T1, L-selectin-Ig (Homo sapiens, UniProt P14151); assay: Immunoprecipitation of versican from ACHN conditioned medium with L-selectin-Ig; type: binding; details: 30 mM sodium chlorate; ACHN cells; FIG. 1
T1 construct: purchased R & D Systems Inc
T1 sequence (P14151 with tags, fused parts or gaps limits assumed): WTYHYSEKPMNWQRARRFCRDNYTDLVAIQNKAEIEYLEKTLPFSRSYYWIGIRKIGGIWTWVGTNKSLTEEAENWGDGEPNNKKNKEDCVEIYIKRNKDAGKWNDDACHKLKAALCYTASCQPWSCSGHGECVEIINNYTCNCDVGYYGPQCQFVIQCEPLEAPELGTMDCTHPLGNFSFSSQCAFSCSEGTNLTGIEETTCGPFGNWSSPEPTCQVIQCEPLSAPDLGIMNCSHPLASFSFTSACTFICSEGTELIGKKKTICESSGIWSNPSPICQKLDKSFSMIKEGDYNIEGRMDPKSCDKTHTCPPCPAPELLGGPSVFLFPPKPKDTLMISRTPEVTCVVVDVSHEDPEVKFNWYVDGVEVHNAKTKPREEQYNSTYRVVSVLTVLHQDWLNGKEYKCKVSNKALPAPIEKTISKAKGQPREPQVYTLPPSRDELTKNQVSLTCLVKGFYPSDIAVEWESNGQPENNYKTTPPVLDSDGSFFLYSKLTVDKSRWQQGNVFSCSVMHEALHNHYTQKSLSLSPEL
Protocol: as §1, §2, §3, §4

[4] = tested on: P-selectin-Ig; assay: Immunoprecipitation of versican from ACHN conditioned medium with P-selectin-Ig; type: binding; details: 30 mM sodium chlorate; ACHN cells; FIG. 1
Protocol: as §1, §2, §3, §4

Compound: [Na+].[O-][Cl+2]([O-])[O-] [sodium chlorate]
- effect of treatment on interaction between versican and CD44-Ig [1]: not inhibited
- inhibition of sulfation [2]: more than 90%
- effect of treatment on interaction between versican and L-selectin-Ig [3]: inhibited
- effect of treatment on interaction between versican and P-selectin-Ig [4]: inhibited

From patent US20060211651A1, “Persulfated oligosaccharide acting on selectins and chemokine” (Taisho Pharmaceutical Co., Ltd., priority 2002, published 2006)
